Our source for the % of control, % of inhibition and pXC50 values is ChEMBL document CHEMBL5465560, “Selectivity Literature for EUbOPEN Chemogenomic Library” (2024).

Assay [1] concerns the target T1, Rhodopsin kinase GRK1 (Homo sapiens) (UniProt Q15835).
T1 sequence (whole entry): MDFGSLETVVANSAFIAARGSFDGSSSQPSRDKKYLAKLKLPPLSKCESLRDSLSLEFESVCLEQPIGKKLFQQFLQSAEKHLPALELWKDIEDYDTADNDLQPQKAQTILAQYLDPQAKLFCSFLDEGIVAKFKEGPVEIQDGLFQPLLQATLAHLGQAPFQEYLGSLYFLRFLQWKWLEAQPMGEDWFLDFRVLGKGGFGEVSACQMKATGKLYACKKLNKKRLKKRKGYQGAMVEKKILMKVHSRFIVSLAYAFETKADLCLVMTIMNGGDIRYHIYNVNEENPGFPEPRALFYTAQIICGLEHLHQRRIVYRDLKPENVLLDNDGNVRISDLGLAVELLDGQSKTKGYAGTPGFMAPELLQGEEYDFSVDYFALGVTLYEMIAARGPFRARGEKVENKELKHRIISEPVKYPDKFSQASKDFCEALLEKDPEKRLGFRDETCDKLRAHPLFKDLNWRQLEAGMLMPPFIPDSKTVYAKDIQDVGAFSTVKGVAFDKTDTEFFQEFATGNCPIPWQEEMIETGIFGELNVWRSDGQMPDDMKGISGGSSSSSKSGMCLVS
The conditions noted are these: at 10 µM.

The target in assay [2] is T2, Dual specificity mitogen-activated protein kinase kinase 4 (Homo sapiens) (UniProt P45985).
T2 sequence (whole entry): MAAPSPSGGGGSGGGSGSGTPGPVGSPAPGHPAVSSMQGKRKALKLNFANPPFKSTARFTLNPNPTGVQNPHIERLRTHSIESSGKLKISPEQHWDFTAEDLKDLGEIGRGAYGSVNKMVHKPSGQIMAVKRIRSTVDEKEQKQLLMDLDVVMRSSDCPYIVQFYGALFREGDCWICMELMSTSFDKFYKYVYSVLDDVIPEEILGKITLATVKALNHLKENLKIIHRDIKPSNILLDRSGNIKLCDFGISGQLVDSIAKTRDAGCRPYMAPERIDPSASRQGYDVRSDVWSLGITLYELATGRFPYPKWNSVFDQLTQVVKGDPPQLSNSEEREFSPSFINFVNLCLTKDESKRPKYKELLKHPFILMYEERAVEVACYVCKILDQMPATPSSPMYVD
In words: Selectivity interaction (KinomeScan (DiscoverX)) EUB0000655a MAP2K4. The conditions noted are these: at 10 µM.

The target in assay [3] is T3, Serine/threonine-protein kinase TBK1 (Homo sapiens) (UniProt Q9UHD2).
T3 sequence (whole entry): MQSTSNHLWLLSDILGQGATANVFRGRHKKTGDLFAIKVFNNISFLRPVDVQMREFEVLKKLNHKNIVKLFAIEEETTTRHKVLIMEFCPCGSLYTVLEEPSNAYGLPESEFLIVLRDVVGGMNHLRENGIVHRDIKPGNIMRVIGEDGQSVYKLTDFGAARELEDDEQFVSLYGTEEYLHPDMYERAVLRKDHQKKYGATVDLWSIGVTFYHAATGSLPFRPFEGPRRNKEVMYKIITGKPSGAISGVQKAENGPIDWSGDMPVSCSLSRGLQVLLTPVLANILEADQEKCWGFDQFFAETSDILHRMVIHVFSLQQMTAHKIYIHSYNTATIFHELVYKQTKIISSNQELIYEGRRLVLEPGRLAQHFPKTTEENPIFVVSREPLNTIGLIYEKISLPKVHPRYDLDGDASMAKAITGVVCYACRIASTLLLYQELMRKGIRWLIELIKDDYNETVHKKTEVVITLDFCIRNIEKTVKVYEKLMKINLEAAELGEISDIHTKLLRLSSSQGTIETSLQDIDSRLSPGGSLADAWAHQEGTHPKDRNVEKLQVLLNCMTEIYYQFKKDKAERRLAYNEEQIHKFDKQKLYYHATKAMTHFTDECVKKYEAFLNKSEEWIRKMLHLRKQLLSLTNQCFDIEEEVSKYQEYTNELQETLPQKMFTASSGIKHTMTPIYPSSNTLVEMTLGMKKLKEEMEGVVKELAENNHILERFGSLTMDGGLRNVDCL
In words: Selectivity interaction (KinomeScan (DiscoverX)) EUB0001619a TBK1. The note with it: at 1 µM.

The target in assay [4] is T4, Ephrin type-B receptor 4 (Homo sapiens) (UniProt P54760).
T4 sequence (whole entry): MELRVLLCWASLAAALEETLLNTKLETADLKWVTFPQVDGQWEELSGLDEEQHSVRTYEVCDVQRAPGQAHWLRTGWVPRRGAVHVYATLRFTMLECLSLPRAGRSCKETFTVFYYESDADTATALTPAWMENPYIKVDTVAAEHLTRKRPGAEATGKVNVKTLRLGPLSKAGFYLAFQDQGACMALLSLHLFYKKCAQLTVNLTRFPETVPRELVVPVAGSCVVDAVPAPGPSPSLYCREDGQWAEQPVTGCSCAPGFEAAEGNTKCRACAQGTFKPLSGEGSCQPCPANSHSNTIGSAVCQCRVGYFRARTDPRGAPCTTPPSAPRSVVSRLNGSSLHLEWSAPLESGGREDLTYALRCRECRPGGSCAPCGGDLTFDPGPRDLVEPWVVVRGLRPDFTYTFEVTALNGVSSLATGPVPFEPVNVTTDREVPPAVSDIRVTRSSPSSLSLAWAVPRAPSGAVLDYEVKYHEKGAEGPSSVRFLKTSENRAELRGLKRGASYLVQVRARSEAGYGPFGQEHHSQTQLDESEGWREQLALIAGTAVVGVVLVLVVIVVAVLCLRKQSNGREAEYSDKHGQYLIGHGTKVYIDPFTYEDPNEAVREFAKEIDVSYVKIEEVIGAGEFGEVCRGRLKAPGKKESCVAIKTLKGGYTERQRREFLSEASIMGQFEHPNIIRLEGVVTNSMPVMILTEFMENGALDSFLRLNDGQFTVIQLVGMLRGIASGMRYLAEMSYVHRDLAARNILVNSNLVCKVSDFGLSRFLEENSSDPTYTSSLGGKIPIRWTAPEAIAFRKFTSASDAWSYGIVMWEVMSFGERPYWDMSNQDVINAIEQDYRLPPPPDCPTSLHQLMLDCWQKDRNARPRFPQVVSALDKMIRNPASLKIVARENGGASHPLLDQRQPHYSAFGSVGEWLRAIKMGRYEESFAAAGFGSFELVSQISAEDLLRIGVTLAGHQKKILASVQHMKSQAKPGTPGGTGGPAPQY
In words: Selectivity interaction (Kinase screening (Nanosyn)) EUB0000604a EPHB4.

Assay [5] concerns the target Cannabinoid receptor 2 (Homo sapiens) (UniProt P34972). In words: Selectivity interaction (Panel of kinases, GPCRs, ion channels and transporters (enzymatic assay)) EUB0000223bCl CNR2.

Sequence of Cannabinoid receptor 2 (Homo sapiens) (P34972 whole entry): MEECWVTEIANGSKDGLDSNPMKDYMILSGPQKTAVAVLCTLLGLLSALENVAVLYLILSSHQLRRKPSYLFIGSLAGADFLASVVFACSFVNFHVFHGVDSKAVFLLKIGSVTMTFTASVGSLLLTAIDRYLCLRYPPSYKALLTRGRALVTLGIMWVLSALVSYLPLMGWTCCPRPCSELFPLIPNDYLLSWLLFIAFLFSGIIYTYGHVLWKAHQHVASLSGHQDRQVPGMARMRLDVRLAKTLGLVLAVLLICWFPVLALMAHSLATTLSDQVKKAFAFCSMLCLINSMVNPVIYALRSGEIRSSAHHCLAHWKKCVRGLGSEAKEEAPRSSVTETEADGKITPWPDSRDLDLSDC

`Cc1cc([C@@H](C)Nc2ccccc2C(=O)O)c2nc(N3CCOCC3)cc(=O)n2c1` [AZD-6482] came in with a % of control in assay [1] of 100%.
Turning to `CN(C)CCOc1ccc(-c2nc(-c3ccncc3)c(-c3ccc4c(c3)CC/C4=N\O)[nH]2)cc1`, the % of control in assay [2] stood at 100%.
`N#Cc1cccc(-c2c[nH]c3ncnc(N4CCOCC4)c23)c1`: the % of control in assay [3] was 100%.
Turning to `Cc1cnc(Nc2ccc(F)cc2Cl)nc1-c1c[nH]c(C(=O)N[C@H](CO)c2cccc(Cl)c2)c1`, in assay [4], the % of inhibition turned out to be 0%.
In assay [5], `COc1cc(C(=O)N2CC[C@@H](O)[C@@H](N)C2)cc2nc(-c3cc4ccccc4n3CC3CC3)n(C)c12` showed a pXC50 below 4.5 M.
